The nature of data set [1]: Molar enthalpy of transition or fusion. The note with it: Crystal; DSC.
For data set [2] the following is noted: Crystal; DTA.

Numbers after ± are expanded uncertainties.

With `CC(=O)OCCNc1ccc([N+](=O)[O-])cc1` [2-[(4-nitrophenyl)amino]ethanol 1-acetate], in data set [1], the “Molar enthalpy of transition or fusion” value turned out to be 4.97 ± 0.191 kcal/mol. For the same compound, in data set [2], the Normal melting temperature was 113.87 ± 1.1 °C.
Take `CN(C(=O)N(C)c1ccccc1)c1ccccc1` [1,3-dimethyl-1,3-diphenylurea]: the “Molar enthalpy of transition or fusion” value in data set [1] worked out at 7.91 ± 0.215 kcal/mol. In addition, in data set [2], the Normal melting temperature came out at 120.00 ± 1.1 °C.
The like results for `c1ccc(Nc2ccccc2)cc1` [diphenylamine] were, in that order, 4.71 ± 0.167 kcal/mol and 53.50 ± 1.1 °C.
On the same counts, the results for `CCN(C(=O)N(CC)c1ccccc1)c1ccccc1` [1,3-diethyl-1,3-diphenylurea] are 8.01 ± 0.215 kcal/mol and 71.87 ± 1.1 °C.
As to `CCNc1ccc([N+](=O)[O-])cc1` [N-ethyl-4-nitroaniline], the “Molar enthalpy of transition or fusion” value in data set [1] came to 5.43 ± 0.191 kcal/mol. For the same compound, in data set [2], the Normal melting temperature turned out to be 95.06 ± 1.1 °C.
